We go through 29 compounds from patent US8802674B2, “Aminopyrimidine derivatives as LRRK2 modulators” (Genentech, Inc., priority 2011, dated 2014).

For the experiment, the target named is LRRK2 (Homo sapiens (Human), UniProt Q5S007, G2019S). The experiment is described as follows: In Vitro LRRK2 LabChip Assay. In kind it is biochemical. To be noted: Table 4. The protocol: In Vitro LRRK2 LabChip Assay
Chain of LRRK2 (Q5S007 970-2527 G2019S limits assumed): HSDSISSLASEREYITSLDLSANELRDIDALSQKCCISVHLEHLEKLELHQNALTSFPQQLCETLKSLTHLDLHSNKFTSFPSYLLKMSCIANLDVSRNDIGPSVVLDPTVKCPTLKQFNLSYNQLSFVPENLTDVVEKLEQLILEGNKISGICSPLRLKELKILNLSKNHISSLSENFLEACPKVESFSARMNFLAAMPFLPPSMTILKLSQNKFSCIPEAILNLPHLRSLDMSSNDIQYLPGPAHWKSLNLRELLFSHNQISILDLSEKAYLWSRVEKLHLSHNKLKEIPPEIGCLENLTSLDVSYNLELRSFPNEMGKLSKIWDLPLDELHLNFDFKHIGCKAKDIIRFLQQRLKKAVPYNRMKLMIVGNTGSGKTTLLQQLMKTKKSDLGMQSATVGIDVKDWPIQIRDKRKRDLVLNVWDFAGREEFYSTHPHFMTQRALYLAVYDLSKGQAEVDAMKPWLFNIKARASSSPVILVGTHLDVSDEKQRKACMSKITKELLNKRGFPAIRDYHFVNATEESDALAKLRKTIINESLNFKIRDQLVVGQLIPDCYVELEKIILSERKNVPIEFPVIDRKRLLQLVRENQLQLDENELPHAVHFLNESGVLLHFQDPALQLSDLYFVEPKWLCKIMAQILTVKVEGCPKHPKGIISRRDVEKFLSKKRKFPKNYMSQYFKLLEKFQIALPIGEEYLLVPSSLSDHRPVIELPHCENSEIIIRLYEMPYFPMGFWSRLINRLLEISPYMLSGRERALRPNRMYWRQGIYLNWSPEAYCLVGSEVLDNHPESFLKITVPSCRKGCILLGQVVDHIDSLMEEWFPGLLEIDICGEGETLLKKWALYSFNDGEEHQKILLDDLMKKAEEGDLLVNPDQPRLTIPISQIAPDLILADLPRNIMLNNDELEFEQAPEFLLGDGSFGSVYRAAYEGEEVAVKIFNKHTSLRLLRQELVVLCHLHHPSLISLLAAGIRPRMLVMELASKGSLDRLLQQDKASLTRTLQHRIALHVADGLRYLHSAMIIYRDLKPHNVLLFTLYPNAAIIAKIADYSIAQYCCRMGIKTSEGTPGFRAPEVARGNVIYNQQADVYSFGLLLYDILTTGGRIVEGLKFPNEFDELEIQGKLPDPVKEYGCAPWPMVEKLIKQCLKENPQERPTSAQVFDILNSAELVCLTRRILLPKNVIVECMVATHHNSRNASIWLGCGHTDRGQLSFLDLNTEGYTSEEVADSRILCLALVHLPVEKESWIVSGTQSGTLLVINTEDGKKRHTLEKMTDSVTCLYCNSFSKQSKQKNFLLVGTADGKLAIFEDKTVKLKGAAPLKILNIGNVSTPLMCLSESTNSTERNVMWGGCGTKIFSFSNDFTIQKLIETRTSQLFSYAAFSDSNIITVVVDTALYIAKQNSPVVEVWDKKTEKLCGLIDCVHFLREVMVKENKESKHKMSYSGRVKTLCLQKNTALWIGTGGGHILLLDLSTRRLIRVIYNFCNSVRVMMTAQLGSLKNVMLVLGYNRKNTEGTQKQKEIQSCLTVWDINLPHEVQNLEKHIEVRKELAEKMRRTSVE
This assay was used to determine a compound's potency in inhibiting activity of LRRK2 by determining, Kiapp, IC50, or percent inhibition values. In a polypropylene plate, LRRK2, fluorescently-labeled peptide substrate, ATP and test compound were incubated together. Using a LabChip 3000 (Caliper Life Sciences), after the reaction the substrate was separated by capillary electrophoresis into two populations: phosphorylated and unphosphorylated. The relative amounts of each were quantitated by fluorescence intensity. LRRK2 Ki was determined according to the equation: Y=V0*(1−((x+Ki*(1+S/Km)+Et)/(2*Et)−(((x+Ki*(1+S/Km)+Et)^2−(4*Et*x))^0.5)/(2*Et))). Ki values in Table 4 and elsewhere herein are shown in μM.
Assay conditions and materials used were as follows:
Compound Plate Preparation:
For serial dilutions, 34.6 μl DMSO was added to columns 3-24. For the assay controls, 37.5 μl DMSO was added to columns 1 and 2 of rows A and P. a,d and 50 μl 25 μM G-028831 (Staurosporine) was added to columns 1 and 2, row B. For the samples: to start at 100 μM, 37.5 μl DMSO was to columns 1 and 2, then 12.5 μl 10 mM compound; to start at 10 μM, 78 μl DMSO was added to columns 1 & 2, then 2 μl 10 mM compound; and to start at 1 μM, 25 μM compound (2 μl 10 mM cmpd+798 μl DMSO) was added to empty columns 1 and 2. A Precision instrument was used to perform 1:3.16 serial dilutions (“PLK_BM_serial_halflog”).
ATP was diluted to 282.1 μM in Complete Kinase Buffer (final concentration was 130 μM).
Total and Blank Preparation:
In Complete Reaction Buffer, substrate was diluted to 4 μM. Equal volumes of Complete Reaction Buffer and 4 μM substrate were combined to obtain the blank. Equal volumes of Complete Reaction Buffer and 4 μM substrate were combined and to the combined solution was added 2× final LRRK2 concentration.
To a 50 μl polypropylene plate, 5 μl/well buffer/substrate was added by hand to Blank wells. A Biomek FX was used to start the kinase reaction (“PLK SAR 23 ATP”). The following were added to the appropriate wells:
5 μl/well compound/ATP in Assay Plate;
5 μl/well kinase/substrate in Assay Plate;
The plate was incubated for 2 hours in the dark. Biomek FX was used to stop the kinase reaction (“PLK Stop”), and 10 μl/well Stop solution was added to the Assay Plate. Results were read on the LabChip 3000.
The LabChip 3000 was run using the job “LRRK2IC50” with the following job settings: […]
`CNc1nc(Nc2cc(OC)c(C(=O)NCCO)cc2Cl)ncc1Cl` [Example 142, 5-Chloro-4-(5-chloro-4-methylamino-pyrimidin-2-ylamino)-N-(2-hydroxy-ethyl)-2-methoxy-benzamide] returned an inhibitory constant (Ki) of 11 nM. For `CNC(=O)c1cc(Cl)c(Nc2ncc(Cl)c(NC)n2)cc1OC` [Example 144, 5-Chloro-4-(5-chloro-4-methylamino-pyrimidin-2-ylamino)-2-methoxy-N-methyl-benzamide] the value was 11.3 nM; for `CNc1nc(Nc2cc(OC)c(C(=O)N3CCC(F)(F)CC3)cc2Cl)ncc1Cl` [Example 146, [5-Chloro-4-(5-chloro-4-methylamino-pyrimidin-2-ylamino)-2-methoxy-phenyl]-(4,4-difluoro-piperidin-1-yl)-methanone], 7.8 nM.

`CCNc1nc(Nc2cc(OC)c(C(=O)N3CCOCC3)cc2Cl)ncc1C(F)(F)F` [Example 147, [5-Chloro-4-(4-ethylamino-5-trifluoromethyl-pyrimidin-2-ylamino)-2-methoxy-phenyl]-morpholin-4-yl-methanone] yielded a Ki of 3.4 nM. Then `CCNc1nc(Nc2cc(OC)c(C(=O)NC3CC3)cc2Cl)ncc1C(F)(F)F` [Example 148, 5-Chloro-N-cyclopropyl-4-(4-ethylamino-5-trifluoromethyl-pyrimidin-2-ylamino)-2-methoxy-benzamide], with 3.5 nM. The compound `CCNc1nc(Nc2cc(OC)c(C(=O)NCCOC)cc2Cl)ncc1C(F)(F)F` [Example 149, 5-Chloro-4-(4-ethylamino-5-trifluoromethyl-pyrimidin-2-ylamino)-2-methoxy-N-(2-methoxy-ethyl)-benzamide] had a Ki of 9.3 nM. This Ki lies about 2.7-fold higher than the previous one.

Take `CNc1nc(Nc2cc(OC)c(C(=O)N3CCNCC3)cc2Cl)ncc1Cl` [Example 150, [5-Chloro-4-(5-chloro-4-methylamino-pyrimidin-2-ylamino)-2-methoxy-phenyl]-piperazin-1-yl-methanone]: the affinity corresponds to a Ki of 8.9 nM. For `CNc1nc(Nc2cc(OC)c(C(=O)N3CCC(N(C)C)CC3)cc2Cl)ncc1Cl` [Example 151, [5-Chloro-4-(5-chloro-4-methylamino-pyrimidin-2-ylamino)-2-methoxy-phenyl]-(4-dimethylamino-piperidin-1-yl)-methanone] the value was 2.8 nM; for `CNc1nc(Nc2cc(OC)c(C(=O)N3CCC(O)C3)cc2Cl)ncc1Cl` (centres unmarked) [Example 152, [5-Chloro-4-(5-chloro-4-methylamino-pyrimidin-2-ylamino)-2-methoxy-phenyl]-(3-hydroxy-pyrrolidin-1-yl)-methanone], 8.6 nM; for `CNc1nc(Nc2cc(OC)c(C(=O)NC3COC3)cc2Cl)ncc1Cl` [Example 153, 5-Chloro-4-(5-chloro-4-methylamino-pyrimidin-2-ylamino)-2-methoxy-N-oxetan-3-yl-benzamide], 27.4 nM. The compound `CNc1nc(Nc2cc(OC)c(C(=O)NC3CC3)cc2Cl)ncc1C(F)(F)F` [Example 154, 5-Chloro-N-cyclopropyl-2-methoxy-4-(4-methylamino-5-trifluoromethyl-pyrimidin-2-ylamino)-benzamide] registered a Ki of 5.2 nM. Then `CNc1nc(Nc2cc(OC)c(C(=O)NC3CCN(C)CC3)cc2Cl)ncc1Cl` [Example 155, 5-Chloro-4-(5-chloro-4-methylamino-pyrimidin-2-ylamino)-2-methoxy-N-(1-methyl-piperidin-4-yl)-benzamide], with 4.5 nM. As for `CNc1nc(Nc2cc(OC)c(C(=O)N3CCCC3)cc2Cl)ncc1Cl` [Example 156, [5-Chloro-4-(5-chloro-4-methylamino-pyrimidin-2-ylamino)-2-methoxy-phenyl]-pyrrolidin-1-yl-methanone], the affinity, expressed as Ki, was 7.4 nM.

Turning to `CNc1nc(Nc2cc(OC)c(C(=O)NC(C)(C)C)cc2Cl)ncc1Cl` [Example 157, N-tert-Butyl-5-chloro-4-(5-chloro-4-methylamino-pyrimidin-2-ylamino)-2-methoxy-benzamide], the Ki amounted to 28.2 nM. This Ki lies about 3.8-fold higher than the previous one. Compound `CNc1nc(Nc2cc(OC)c(C(=O)N(C)C)cc2Cl)ncc1C(F)(F)F` [Example 158, 5-Chloro-2-methoxy-N,N-dimethyl-4-(4-methylamino-5-trifluoromethyl-pyrimidin-2-ylamino)-benzamide] returned a Ki of 6.8 nM. Then `CNc1nc(Nc2cc(OC)c(C(=O)N3CCC(O)CC3)cc2Cl)ncc1Cl` [Example 161, [5-Chloro-4-(5-chloro-4-methylamino-pyrimidin-2-ylamino)-2-methoxy-phenyl]-(4-hydroxy-piperidin-1-yl)-methanone], with 3.6 nM. `CNc1nc(Nc2cc(OC)c(C(=O)N3CCOC(CO)C3)cc2Cl)ncc1Cl` (centres unmarked) [Example 162, [5-Chloro-4-(5-chloro-4-methylamino-pyrimidin-2-ylamino)-2-methoxy-phenyl]-(2-hydroxymethyl-morpholin-4-yl)-methanone] yielded a Ki of 6.9 nM. Then `CNc1nc(Nc2cc(OC)c(C(=O)N(C)CCO)cc2Cl)ncc1Cl` [Example 163, 5-Chloro-4-(5-chloro-4-methylamino-pyrimidin-2-ylamino)-N-(2-hydroxy-ethyl)-2-methoxy-N-methyl-benzamide], with 7.8 nM. `CNc1nc(Nc2cc(OC)c(C(=O)N3CCCOCC3)cc2Cl)ncc1Cl` [Example 165, [5-Chloro-4-(5-chloro-4-methylamino-pyrimidin-2-ylamino)-2-methoxy-phenyl]-[1,4]oxazepan-4-yl-methanone] returned a Ki of 5.7 nM. `CNc1nc(Nc2cc(OC)c(C(=O)N3CCC(C#N)CC3)cc2Cl)ncc1Cl` [Example 167, l-[5-Chloro-4-(5-chloro-4-methylamino-pyrimidin-2-ylamino)-2-methoxy-benzoyl]-piperidine-4-carbonitrile]: the Ki was 3.3 nM. For `CNc1nc(Nc2cc(OC)c(C(=O)N3CC(O)C3)cc2Cl)ncc1Cl` [Example 169, [5-Chloro-4-(5-chloro-4-methylamino-pyrimidin-2-ylamino)-2-methoxy-phenyl]-(3-hydroxy-azetidin-1-yl)-methanone], the Ki was determined as 5.4 nM. Then `CNc1nc(Nc2cc(OC)c(C(=O)NC3(C#N)CC3)cc2Cl)ncc1Cl` [Example 170, 5-Chloro-4-(5-chloro-4-methylamino-pyrimidin-2-ylamino)-N-(l-cyano-cyclopropyl)-2-methoxy-benzamide], with 13.9 nM; and `CNc1nc(Nc2cc(OC)c(C(=O)N3CCC(C#N)C3)cc2Cl)ncc1Cl` (stereo not drawn) [Example 171, l-[5-Chloro-4-(5-chloro-4-methylamino-pyrimidin-2-ylamino)-2-methoxy-benzoyl]-pyrrolidine-3-carbonitrile], with 4.5 nM. Then `CNc1nc(Nc2cc(OC)c(C(=O)N3C[C@@H](C)N[C@@H](C)C3)cc2Cl)ncc1Cl` [Example 172, [5-Chloro-4-(5-chloro-4-methylamino-pyrimidin-2-ylamino)-2-methoxy-phenyl]-((3R,5S)-dimethyl-piperazin-1-yl)-methanone], with 33.3 nM; and `CNc1nc(Nc2cc(OC)c(C(=O)NC3CCN(C)CC3)cc2Cl)ncc1C(F)(F)F` [Example 173, 5-Chloro-2-methoxy-4-(4-methylamino-5-trifluoromethyl-pyrimidin-2-ylamino)-N-(1-methyl-piperidin-4-yl)-benzamide], with 1.5 nM.

Compound `CNc1nc(Nc2cc(OC)c(C(=O)NC3COC3)cc2Cl)ncc1C(F)(F)F` [Example 174, 5-Chloro-2-methoxy-4-(4-methylamino-5-trifluoromethyl-pyrimidin-2-ylamino)-N-oxetan-3-yl-benzamide] came in with an inhibitory constant (Ki) of 4.1 nM. With `CNc1nc(Nc2cc(OC)c(C(=O)NCC(C)(C)O)cc2Cl)ncc1C(F)(F)F` [Example 175, 5-Chloro-N-(2-hydroxy-2-methyl-propyl)-2-methoxy-4-(4-methylamino-5-trifluoromethyl-pyrimidin-2-ylamino)-benzamide], the Ki amounted to 7.9 nM.

In the case of `CNc1nc(Nc2cc(OC)c(C(=O)N3CCNCC3)cc2Cl)ncc1C(F)(F)F` [Example 176, [5-Chloro-2-methoxy-4-(4-methylamino-5-trifluoromethyl-pyrimidin-2-ylamino)-phenyl]-piperazin-1-yl-methanone], the Ki was determined as 4.1 nM. Then `CNc1nc(Nc2cc(OC)c(C(=O)N3CCC(C#N)C3)cc2Cl)ncc1C(F)(F)F` (centres unmarked) [Example 177, 1-[5-Chloro-2-methoxy-4-(4-methylamino-5-trifluoromethyl-pyrimidin-2-ylamino)-benzoyl]-pyrrolidine-3-carbonitrile], with 2.9 nM.

In general, Ki refers to the dissociation constant of the complex between target and ligand, obtained from inhibition or displacement. Read a low Ki as higher affinity.
